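Tested at 5 concentrations; 48 h exposure; 96-well plates; endpoints linearly interpolated, else capped at highest concentration. The concentration for 50% growth inhibition is given as GI50. TGI marks complete inhibition of growth.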
Legend:
Test in all cases: NCI tumour cell line growth inhibition, 48 h
PC-3 prostate = tested on: PC-3 prostate
SN12C renal = tested on: SN12C renal
CAKI-1 renal = tested on: CAKI-1 renal
UACC-257 melanoma = tested on: UACC-257 melanoma
MDA-MB-435 = tested on: MDA-MB-435
K-562 leukemia = tested on: K-562 leukemia
MALME-3M melanoma = tested on: MALME-3M melanoma
HCT-116 colon = tested on: HCT-116 colon
SK-MEL-5 melanoma = tested on: SK-MEL-5 melanoma
RXF 393 renal = tested on: RXF 393 renal
SR leukemia = tested on: SR leukemia
TK-10 renal = tested on: TK-10 renal
HL-60(TB) leukemia = tested on: HL-60(TB) leukemia
ACHN renal = tested on: ACHN renal
HCC-2998 colon = tested on: HCC-2998 colon
OVCAR-8 ovarian = tested on: OVCAR-8 ovarian
DU-145 prostate = tested on: DU-145 prostate
T-47D breast = tested on: T-47D breast
RPMI-8226 leukemia = tested on: RPMI-8226 leukemia
M14 melanoma = tested on: M14 melanoma
UACC-62 melanoma = tested on: UACC-62 melanoma
HS 578T breast = tested on: HS 578T breast
MCF7 breast = tested on: MCF7 breast
MOLT-4 leukemia = tested on: MOLT-4 leukemia
MDA-MB-468 breast = tested on: MDA-MB-468 breast
U251 CNS = tested on: U251 CNS
SNB-19 CNS = tested on: SNB-19 CNS
NCI-H226 lung = tested on: NCI-H226 lung
NCI-H522 lung = tested on: NCI-H522 lung
NCI/ADR-RES ovarian = tested on: NCI/ADR-RES ovarian
OVCAR-5 ovarian = tested on: OVCAR-5 ovarian
SF-539 CNS = tested on: SF-539 CNS
HT29 colon = tested on: HT29 colon
SK-MEL-2 melanoma = tested on: SK-MEL-2 melanoma
A549 NSCLC = tested on: A549 NSCLC
HCT-15 colon = tested on: HCT-15 colon
SK-MEL-28 melanoma = tested on: SK-MEL-28 melanoma
SNB-75 CNS = tested on: SNB-75 CNS
SK-OV-3 ovarian = tested on: SK-OV-3 ovarian
HOP-92 NSCLC = tested on: HOP-92 NSCLC
EKVX NSCLC = tested on: EKVX NSCLC
BT-549 breast = tested on: BT-549 breast
786-0 renal = tested on: 786-0 renal
CCRF-CEM leukemia = tested on: CCRF-CEM leukemia
OVCAR-4 ovarian = tested on: OVCAR-4 ovarian
NCI-H23 lung = tested on: NCI-H23 lung
LOX IMVI melanoma = tested on: LOX IMVI melanoma
COLO 205 colon = tested on: COLO 205 colon
KM12 colon = tested on: KM12 colon
A498 renal = tested on: A498 renal
MDA-MB-231 breast = tested on: MDA-MB-231 breast
NCI-H460 lung = tested on: NCI-H460 lung
UO-31 renal = tested on: UO-31 renal
SW-620 colon = tested on: SW-620 colon
SF-268 CNS = tested on: SF-268 CNS
OVCAR-3 ovarian = tested on: OVCAR-3 ovarian
HOP-62 NSCLC = tested on: HOP-62 NSCLC
SF-295 CNS = tested on: SF-295 CNS
IGROV1 ovarian = tested on: IGROV1 ovarian

SMILES: Cn1cc(-c2cc(N)n3nc(-c4c[nH]c5ccccc45)cc3n2)c2ccccc21
- GI50 (PC-3 prostate): 3.38 µM
- TGI (PC-3 prostate): 14.4 µM
- GI50 (SN12C renal): 3.47 µM
- TGI (SN12C renal): 12.4 µM
- GI50 (CAKI-1 renal): 1.91 µM
- TGI (CAKI-1 renal): 4.48 µM
- GI50 (UACC-257 melanoma): 1.84 µM
- TGI (UACC-257 melanoma): 3.45 µM
- GI50 (MDA-MB-435): 1.92 µM
- TGI (MDA-MB-435): 3.92 µM
- GI50 (K-562 leukemia): 2.34 µM
- TGI (K-562 leukemia): 6.81 µM
- GI50 (MALME-3M melanoma): 1.56 µM
- TGI (MALME-3M melanoma): 2.9 µM
- GI50 (HCT-116 colon): 1.9 µM
- TGI (HCT-116 colon): 3.54 µM
- GI50 (SK-MEL-5 melanoma): 1.77 µM
- TGI (SK-MEL-5 melanoma): 3.43 µM
- GI50 (RXF 393 renal): 1.69 µM
- TGI (RXF 393 renal): 3.96 µM
- GI50 (SR leukemia): 2.01 µM
- TGI (SR leukemia): 39 µM
- GI50 (TK-10 renal): 2.15 µM
- TGI (TK-10 renal): 7.17 µM
- GI50 (HL-60(TB) leukemia): 1.99 µM
- TGI (HL-60(TB) leukemia): 5.08 µM
- GI50 (ACHN renal): 2.22 µM
- TGI (ACHN renal): 4.85 µM
- GI50 (HCC-2998 colon): 1.79 µM
- TGI (HCC-2998 colon): 3.34 µM
- GI50 (OVCAR-8 ovarian): 2.66 µM
- TGI (OVCAR-8 ovarian): 8.25 µM
- GI50 (DU-145 prostate): 3.61 µM
- TGI (DU-145 prostate): 13.5 µM
- GI50 (T-47D breast): 2.02 µM
- TGI (T-47D breast): 4.58 µM
- GI50 (RPMI-8226 leukemia): 2.51 µM
- TGI (RPMI-8226 leukemia): 6.95 µM
- GI50 (M14 melanoma): 1.79 µM
- TGI (M14 melanoma): 3.66 µM
- GI50 (UACC-62 melanoma): 1.74 µM
- TGI (UACC-62 melanoma): 3.17 µM
- GI50 (HS 578T breast): 5.53 µM
- TGI (HS 578T breast): 45.4 µM
- GI50 (MCF7 breast): 1.81 µM
- TGI (MCF7 breast): 3.78 µM
- GI50 (MOLT-4 leukemia): 2.5 µM
- TGI (MOLT-4 leukemia): 8.28 µM
- GI50 (MDA-MB-468 breast): 1.63 µM
- TGI (MDA-MB-468 breast): 3.11 µM
- GI50 (U251 CNS): 2.04 µM
- TGI (U251 CNS): 4.04 µM
- GI50 (SNB-19 CNS): 3.14 µM
- TGI (SNB-19 CNS): 11.4 µM
- GI50 (NCI-H226 lung): 11.4 µM
- TGI (NCI-H226 lung): 37.2 µM
- GI50 (NCI-H522 lung): 1.69 µM
- TGI (NCI-H522 lung): 3.33 µM
- GI50 (NCI/ADR-RES ovarian): 2.65 µM
- TGI (NCI/ADR-RES ovarian): 7.75 µM
- GI50 (OVCAR-5 ovarian): 2.05 µM
- TGI (OVCAR-5 ovarian): 4.64 µM
- GI50 (SF-539 CNS): 1.81 µM
- TGI (SF-539 CNS): 3.21 µM
- GI50 (HT29 colon): 1.69 µM
- TGI (HT29 colon): 3.23 µM
- GI50 (SK-MEL-2 melanoma): 4.72 µM
- TGI (SK-MEL-2 melanoma): 17.2 µM
- GI50 (A549 NSCLC): 3.01 µM
- TGI (A549 NSCLC): 12 µM
- GI50 (HCT-15 colon): 1.64 µM
- TGI (HCT-15 colon): 3.3 µM
- GI50 (SK-MEL-28 melanoma): 1.66 µM
- TGI (SK-MEL-28 melanoma): 3.03 µM
- GI50 (SNB-75 CNS): 7.65 µM
- TGI (SNB-75 CNS): 21.3 µM
- GI50 (SK-OV-3 ovarian): 11.8 µM
- TGI (SK-OV-3 ovarian): 25.6 µM
- GI50 (HOP-92 NSCLC): 2.29 µM
- TGI (HOP-92 NSCLC): 5.47 µM
- GI50 (EKVX NSCLC): 2.48 µM
- TGI (EKVX NSCLC): 7.15 µM
- GI50 (BT-549 breast): 14.8 µM
- TGI (BT-549 breast): 29.8 µM
- GI50 (786-0 renal): 1.68 µM
- TGI (786-0 renal): 3.26 µM
- GI50 (CCRF-CEM leukemia): 2.77 µM
- TGI (CCRF-CEM leukemia): 24 µM
- GI50 (OVCAR-4 ovarian): 3.26 µM
- TGI (OVCAR-4 ovarian): 14.7 µM
- GI50 (NCI-H23 lung): 2.36 µM
- TGI (NCI-H23 lung): 5.83 µM
- GI50 (LOX IMVI melanoma): 1.81 µM
- TGI (LOX IMVI melanoma): 3.25 µM
- GI50 (COLO 205 colon): 1.72 µM
- TGI (COLO 205 colon): 3.35 µM
- GI50 (KM12 colon): 1.94 µM
- TGI (KM12 colon): 3.99 µM
- GI50 (A498 renal): 7.63 µM
- TGI (A498 renal): 20.8 µM
- GI50 (MDA-MB-231 breast): 1.9 µM
- TGI (MDA-MB-231 breast): 3.47 µM
- GI50 (NCI-H460 lung): 1.95 µM
- TGI (NCI-H460 lung): 3.83 µM
- GI50 (UO-31 renal): 1.64 µM
- TGI (UO-31 renal): 3.28 µM
- GI50 (SW-620 colon): 1.77 µM
- TGI (SW-620 colon): 3.45 µM
- GI50 (SF-268 CNS): 4.25 µM
- TGI (SF-268 CNS): 20.6 µM
- GI50 (OVCAR-3 ovarian): 2.1 µM
- TGI (OVCAR-3 ovarian): 4.59 µM
- GI50 (HOP-62 NSCLC): 3.09 µM
- TGI (HOP-62 NSCLC): 10.5 µM
- GI50 (SF-295 CNS): 1.78 µM
- TGI (SF-295 CNS): 3.4 µM
- GI50 (IGROV1 ovarian): 2.64 µM
- TGI (IGROV1 ovarian): 6.84 µM
